Experimental data as given in patent publication US20020169140A1, “Combination therapy for reduction of toxicity of chemotherapeutic agents” (priority 2001, published 2002).
“Also recorded” adds a separate entry of the source.

What was measured:
[1] = tested on: large cell lung cancer line LXFL 529L; test: Monolayer proliferation inhibition, modified propidium iodide assay; format: cell-based; conditions: for in vitro activity of the agent alone: single agent, stated for both cell lines; for In vitro activity (Test/Control %): 4 days exposure, median of 5 experiments; for tumour effects (words): circiliol alone at 3 μg/ml
[2] = tested on: lung adenocarcinoma cell line LXFA 526L; test: as above; format: cell-based; conditions: for in vitro activity of the agent alone: single agent, stated for both cell lines; for In vitro activity (Test/Control %): 4 days exposure, median of 5 experiments; for tumour effects (words): circiliol alone at 3 μg/ml
[3] = LXFA 529L, 0 μg/ml circiliol, median of 2-5 experiments
[4] = LXFA 529L, +3 μg/ml circiliol, median of 2-5 experiments

Nc1ccn([C@@H]2O[C@H](CO)[C@@H](O)C2(F)F)c(=O)n1 [gemcitabine, 2′, 2′-diflouro-2′-deoxycytidine, reference compound]
IC50 of gemcitabine alone [1, 3]: 0.355 mg/L
IC70 of gemcitabine alone [1, 3]: 0.64 mg/L
IC50 of gemcitabine in combination with circiliol [1, 4]: 0.039 mg/L
IC70 of gemcitabine in combination with circiliol [1, 4]: 0.076 mg/L
fold increase of antitumour activity of gemcitabine (IC70 shift) ([1]; LXFA 529L, with 30 μg/ml circiliol): 19 fold
IC50 ([1]; LXFL 529L, LXFA 529L, 0 μg/ml circiliol, median of 2-5 experiments, read-out: IC50 of gemcitabine alone): 0.36 mg/L
in vitro activity of the agent alone [1]: potently active
IC70 of gemcitabine alone ([2]; LXFA 526L, 0 μg/ml circiliol, median of 2-5 experiments): 5.6 mg/L
IC70 of gemcitabine alone ([2]; LXFA 526L, 0 μg/ml circiliol, median of 2-5 experiments, listed as Gemcitabine): 5.7 mg/L
IC50 ([2]; LXFA 526L, 0 μg/ml circiliol, median of 2-5 experiments, read-out: IC50 of gemcitabine alone): 0.63 mg/L
IC70 of gemcitabine in combination with circiliol ([2]; LXFA 526L, +3 μg/ml circiliol, median of 2-5 experiments): 0.87 mg/L
IC70 of gemcitabine in combination with circiliol ([2]; LXFA 526L, +30 μg/ml circiliol, median of 2-5 experiments): 0.58 mg/L
fold increase of antitumour activity of gemcitabine (IC70 shift) ([2]; LXFA 526L, with 30 μg/ml circiliol): 10 fold
in vitro activity of the agent alone [2]: potently active

COc1cc2oc(-c3ccc(O)c(O)c3)cc(=O)c2c(O)c1OC [Circiliol, 6,7-dimethoxy-5,3′4′-trihydroxyflavone]
In vitro activity (Test/Control %) ([1]; LXFA 529L, circiliol 3 μg/ml): 102%
In vitro activity (Test/Control %) ([1]; LXFA 529L, circiliol 30 μg/ml): 49%
In vitro activity (Test/Control %) ([1]; LXFA 529L, circiliol 300 μg/ml): 39%
tumour effects (words) [1]: inactive alone
tumour effects (words) ([1]; listed as circiliol): no tumour effects
inhibition of tumour growth in vitro ([1]; circiliol alone at 30 μg/ml): 50%
antitumour activity in vitro ([1]; circiliol alone at <3 μg/ml): no antitumour activity
in vitro activity of the agent alone [1]: only moderately active; also recorded: low activity
In vitro activity (Test/Control %) ([2]; LXFA 526L, circiliol 3 μg/ml): 93%
In vitro activity (Test/Control %) ([2]; LXFA 526L, circiliol 30 μg/ml): 53%
In vitro activity (Test/Control %) ([2]; LXFA 526L, circiliol 300 μg/ml): 55%
tumour effects (words) [2]: inactive alone
tumour effects (words) ([2]; listed as circiliol): no tumour effects
inhibition of tumour growth in vitro ([2]; circiliol alone at 30 μg/ml): 50%
antitumour activity in vitro ([2]; circiliol alone at <3 μg/ml): no antitumour activity
in vitro activity of the agent alone [2]: only moderately active; also recorded: low activity
